Test results published in patent US11040033B2 (Gilead Sciences, Inc., priority 2017, dated 2021).

Molecular target: T1, IDO1 (Homo sapiens, UniProt P14902)
T1 construct: HeLa cells were treated with a test compound in the presence of IFNγ, which induces IDO1 expression; endogenous in cells; host or cells: H1-HeLa cells (ATCC #CRL-1958), induced with IFNγ
Test: Cell-based (HeLa) assay for measurement of IDO1 inhibition (kynurenine levels in supernatant after IFNγ induction)
Conditions: H1-HeLa cells, IFNγ-induced IDO1, 48 hour incubation, kynurenine absorbance at 480 nm; geometric mean of a minimum of four determinations
Summary of the method: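 HeLa cells (1,250/well, DMEM/10% FBS) exposed to compound (0.5% DMSO) with IFNγ (added as 50 ng/mL solution) for 48 h. Supernatant kynurenine measured after TCA treatment (60 °C, 30 min) with p-dimethylaminobenzaldehyde, A480. EC50 from four-parameter fit normalised to ±IFNγ controls; geometric mean of ≥4 runs.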

T1 sequence (P14902 whole entry): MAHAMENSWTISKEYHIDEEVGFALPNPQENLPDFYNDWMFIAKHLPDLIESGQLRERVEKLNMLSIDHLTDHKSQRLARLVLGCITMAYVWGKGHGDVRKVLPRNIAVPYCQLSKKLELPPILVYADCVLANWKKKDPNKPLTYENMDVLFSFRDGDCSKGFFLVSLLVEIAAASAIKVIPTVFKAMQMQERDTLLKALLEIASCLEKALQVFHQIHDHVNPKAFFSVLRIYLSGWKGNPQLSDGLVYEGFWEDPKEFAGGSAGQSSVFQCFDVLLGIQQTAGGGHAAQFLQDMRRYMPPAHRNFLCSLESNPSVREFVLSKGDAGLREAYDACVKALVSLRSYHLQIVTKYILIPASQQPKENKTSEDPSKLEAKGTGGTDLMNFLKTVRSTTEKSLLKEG

Structure (SMILES): Cc1ncc(-c2cccn3c(C4CC4)ncc23)cc1C(=O)Nc1ccc(F)cc1 [Example 90, 5-(3-cyclopropylimidazo[1,5-a]pyridin-8-yl)-N-(4-fluorophenyl)-2-methylnicotinamide]
- EC50: 2940 nM

Structure (SMILES): Cc1ccn2c(-c3cccc(F)c3F)ncc2c1-c1cnc(C)c(C(=O)Nc2ccc(F)cc2)c1 [Example 77, 5-(3-(2,3-difluorophenyl)-7-methylimidazo[1,5-a]pyridin-8-yl)-N-(4-fluorophenyl)-2-methylnicotinamide]
- EC50: 730 nM

Structure (SMILES): O=C(Nc1ccc(F)cc1)c1cc(-c2cccn3c(-c4ccncn4)ncc23)ccc1C(F)(F)F [Example 26, N-(4-fluorophenyl)-5-(3-(pyrimidin-4-yl)imidazo[1,5-a]pyridin-8-yl)-2-(trifluoromethyl)benzamide]
- EC50: 66.4 nM

Structure (SMILES): Cc1ncc(-c2cccn3c(-c4cccc(F)c4F)ncc23)cc1C(=O)Nc1cccc(OC(F)(F)F)c1 [Example 72, 5-(3-(2,3-difluorophenyl)imidazo[1,5-a]pyridin-8-yl)-2-methyl-N-(3-(trifluoromethoxy)phenyl)nicotinamide]
- EC50: 380 nM

Structure (SMILES): Cc1ncc(-c2cccn3c(-c4cccc(Cl)c4Cl)ncc23)cc1C(=O)Nc1ccc(F)cc1 [Example 86, 5-(3-(2,3-dichlorophenyl)imidazo[1,5-a]pyridin-8-yl)-N-(4-fluorophenyl)-2-methylnicotinamide]
- EC50: 30.8 nM

Structure (SMILES): Cc1ncc(-c2cccn3c(-c4cccc(F)c4)ncc23)cc1C(=O)Nc1ccc(F)cc1 [Example 35, N-(4-fluorophenyl)-5-(3-(3-fluorophenyl)imidazo[1,5-a]pyridin-8-yl)-2-methylnicotinamide]
- EC50: 26.8 nM

Structure (SMILES): Cc1ncc(-c2cccn3c(-c4cccc(F)c4F)ncc23)cc1C(=O)Nc1ccc(F)cc1 [Example 43, 5-(3-(2,3-difluorophenyl)imidazo[1,5-a]pyridin-8-yl)-N-(4-fluorophenyl)-2-methylnicotinamide]
- EC50: 17.2 nM

Structure (SMILES): Cc1ccc(-c2nccn3c(-c4cccc(F)c4F)ncc23)cc1C(=O)Nc1ccc(F)cc1 [Example 51, 5-(3-(2,3-difluorophenyl)imidazo[1,5-a]pyrazin-8-yl)-N-(4-fluorophenyl)-2-methylbenzamide]
- EC50: 656 nM

Structure (SMILES): Cc1ncc(-c2cccn3c(-c4cccc(F)c4F)ncc23)cc1C(=O)Nc1ccc(C#N)c(C(F)(F)F)c1 [Example 59, N-(4-cyano-3-(trifluoromethyl)phenyI)-5-(3-(2,3-difluorophenyl)imidazo[1,5-a]pyridin-8-yl)-2-methylnicotinamide]
- EC50: 227 nM

Structure (SMILES): Cc1ncc(-c2cccn3c(-c4cccc(F)c4F)ncc23)cc1C(=O)Nc1ccc(OC(F)(F)F)cc1 [Example 58, 5-(3-(2,3-difluorophenyl)imidazo[1,5-a]pyridin-8-yl)-2-methyl-N-(4-(trifluoromethoxy)phenyl)nicotinamide]
- EC50: 110 nM
